Results reported in US8586591B2, “Aminopyrazine derivative and medicine” (Nippon Shinyaku Co., Ltd., priority 2009, dated 2013).
Structures can show the parent of a compound that is named as a salt.

Experiments:
[1] = target: T1, JAK2 tyrosine kinase (Homo sapiens, UniProt O60674); experiment: Test 1: inhibitory activity to JAK2 tyrosine kinase (ELISA); format: biochemical; details: 25 μM ATP in substrate solution, 30° C. for 1 hour, n=2
T1 construct: purchased Carnabioscience Co
Procedure, shortened: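 Human JAK2 (diluted to 0.75 nM before addition) phosphorylated a biotinylated peptide on streptavidin plates for 1 h at 30 °C. The substrate mix held 625 nM peptide, 25 μM ATP and 25 mM MgCl2 in 15 mM Tris pH 7.5, 0.01% Tween-20 and 1 mM DTT. Phosphotyrosine was detected by HRP antibody/TMB at 450 nm, and IC50 was obtained by non-linear regression; duplicates were run.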

[2] = target: T2, JAK3 tyrosine kinase (Homo sapiens, UniProt P52333); experiment: Test 1: inhibitory activity to JAK3 tyrosine kinase (ELISA); format: biochemical; details: 25 μM ATP in substrate solution, 30° C. for 1 hour, n=2
T2 construct: purchased Carnabioscience Co
T2 sequence (P52333 1-1124): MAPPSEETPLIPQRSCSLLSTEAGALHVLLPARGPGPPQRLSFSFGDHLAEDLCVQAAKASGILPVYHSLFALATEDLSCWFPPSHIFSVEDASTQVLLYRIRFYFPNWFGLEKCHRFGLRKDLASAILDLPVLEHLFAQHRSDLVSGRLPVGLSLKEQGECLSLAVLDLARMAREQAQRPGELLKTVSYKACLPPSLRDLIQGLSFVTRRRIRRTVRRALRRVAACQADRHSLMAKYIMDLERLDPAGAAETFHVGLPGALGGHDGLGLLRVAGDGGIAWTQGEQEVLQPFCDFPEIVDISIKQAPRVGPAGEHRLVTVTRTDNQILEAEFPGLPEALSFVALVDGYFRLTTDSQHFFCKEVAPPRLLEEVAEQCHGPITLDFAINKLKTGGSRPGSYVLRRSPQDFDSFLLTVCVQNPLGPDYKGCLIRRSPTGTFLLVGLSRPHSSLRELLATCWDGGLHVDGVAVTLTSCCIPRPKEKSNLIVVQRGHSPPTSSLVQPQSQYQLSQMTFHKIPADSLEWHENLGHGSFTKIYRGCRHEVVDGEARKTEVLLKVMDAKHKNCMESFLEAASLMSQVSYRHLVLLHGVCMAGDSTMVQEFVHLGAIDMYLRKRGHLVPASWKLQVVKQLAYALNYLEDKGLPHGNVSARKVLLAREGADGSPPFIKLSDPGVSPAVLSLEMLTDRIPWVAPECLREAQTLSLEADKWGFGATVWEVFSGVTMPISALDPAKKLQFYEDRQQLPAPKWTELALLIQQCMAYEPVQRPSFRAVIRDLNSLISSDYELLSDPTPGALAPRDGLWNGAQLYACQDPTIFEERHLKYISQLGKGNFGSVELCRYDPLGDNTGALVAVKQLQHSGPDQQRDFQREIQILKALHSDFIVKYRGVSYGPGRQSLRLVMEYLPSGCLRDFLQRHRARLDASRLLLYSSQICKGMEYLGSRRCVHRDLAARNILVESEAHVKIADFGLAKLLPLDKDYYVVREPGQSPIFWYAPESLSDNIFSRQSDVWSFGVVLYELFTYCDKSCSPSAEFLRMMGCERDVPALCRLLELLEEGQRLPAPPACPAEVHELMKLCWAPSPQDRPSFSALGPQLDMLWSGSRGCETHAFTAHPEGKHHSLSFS
Procedure, shortened: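 ELISA of JAK3 kinase activity with absorbance read at 450 nm. Compounds were tested from DMSO dilution series at 100-fold the measurement concentrations (1000–0.01 μM), diluted up to 20 times in assay buffer, against a DMSO negative control. IC50 was estimated by non-linear regression of absorbance.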

T1 sequence (O60674 whole entry): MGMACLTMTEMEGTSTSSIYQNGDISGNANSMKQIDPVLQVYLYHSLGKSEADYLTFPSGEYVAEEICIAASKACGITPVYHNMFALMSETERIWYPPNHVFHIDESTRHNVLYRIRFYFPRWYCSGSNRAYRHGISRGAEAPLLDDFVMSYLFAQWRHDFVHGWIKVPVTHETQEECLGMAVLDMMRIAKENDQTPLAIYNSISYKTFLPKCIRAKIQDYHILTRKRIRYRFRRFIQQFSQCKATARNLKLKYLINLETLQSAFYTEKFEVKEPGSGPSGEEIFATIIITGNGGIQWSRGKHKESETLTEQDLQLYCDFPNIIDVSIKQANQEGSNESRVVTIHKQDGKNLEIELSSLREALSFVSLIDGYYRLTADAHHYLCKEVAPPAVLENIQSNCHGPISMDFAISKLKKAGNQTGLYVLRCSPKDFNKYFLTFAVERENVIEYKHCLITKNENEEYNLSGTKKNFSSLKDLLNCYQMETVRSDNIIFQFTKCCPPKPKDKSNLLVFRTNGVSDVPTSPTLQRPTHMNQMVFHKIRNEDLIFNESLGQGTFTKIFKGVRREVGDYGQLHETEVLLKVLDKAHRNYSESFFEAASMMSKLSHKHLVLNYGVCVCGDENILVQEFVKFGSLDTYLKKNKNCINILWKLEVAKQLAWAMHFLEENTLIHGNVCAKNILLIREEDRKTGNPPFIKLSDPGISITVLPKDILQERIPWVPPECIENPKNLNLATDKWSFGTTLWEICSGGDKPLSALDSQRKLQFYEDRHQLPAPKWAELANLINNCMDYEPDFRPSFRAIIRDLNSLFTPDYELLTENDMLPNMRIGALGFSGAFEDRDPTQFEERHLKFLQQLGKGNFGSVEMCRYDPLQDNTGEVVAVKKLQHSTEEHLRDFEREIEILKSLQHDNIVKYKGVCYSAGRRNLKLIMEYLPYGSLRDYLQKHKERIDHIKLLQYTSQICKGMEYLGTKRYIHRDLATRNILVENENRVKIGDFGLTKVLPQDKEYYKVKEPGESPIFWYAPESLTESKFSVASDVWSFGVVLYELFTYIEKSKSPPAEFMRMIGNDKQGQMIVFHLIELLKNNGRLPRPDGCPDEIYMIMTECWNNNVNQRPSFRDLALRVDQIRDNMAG

SMILES	IC50 [1] [nM]	IC50 [2] [nM]
Cc1cnc(CNc2cc(Nc3cnccn3)nc(N[C@@H](C)c3ccc(F)cc3)n2)cn1 [Example 102, (S)—N^2-[1-(4-Fluorophenyl)ethyl]-N^4-[(5-methylpyrazin-2-yl)methyl]-N^6-(pyrazin-2-yl)pyrimidine-2,4,6-triamine hydrochloride]	2.6	140
C[C@H](Nc1nc(Nc2cnccn2)ccc1C(=O)NCC1CC1)c1ccc(F)cc1 [Example 189, (S)—N-(Cyclopropylmethyl)-2-[1-(4-fluorophenyl)ethylamino]-6-(pyrazin-2-ylamino)nicotinamide]	12	1500
C[C@H](Nc1nc(Nc2cnccn2)cc(N2CC(NS(C)(=O)=O)C2)n1)c1ccc(F)cc1 [Example 177, (S)—N-(1-{2-[1-(4-Fluorophenyl)ethylamino]-6-(pyrazin-2-ylamino)pyrimidin-4-yl}azetidin-3-yl)methanesulfonamide]	0.74	87
C[C@H](Nc1cc(-c2cc[nH]n2)cc(Nc2cnccn2)n1)c1ccc(F)cc1 [Example 29, (S)—N^2-[1-(4-Fluorophenyl)ethyl]-N^6-(pyrazin-2-yl)-4-(1H-pyrazol-3-yl)pyridine-2,6-diamine]	2	160
C[C@H](Nc1cc(C2CCN(S(C)(=O)=O)CC2)cc(Nc2cnccn2)n1)c1ccc(F)cc1 [Example 215, (S)—N^2-[1-(4-Fluorophenyl)ethyl]-4-[1-(methanesulfonyl)piperidin-4-yl]-N^6-(pyrazin-2-yl)pyridine-2,6-diamine]	2.3	210
C[C@H](Nc1nc(Cl)cc(Nc2cnccn2)n1)c1ccc(F)cc1 [Example 9, (S)-6-Chloro-N^2-[1-(4-fluorophenyl)ethyl]-N^4-(pyrazin-2-yl)pyrimidine-2,4-diamine]	16	360
COCn1cc(-c2cc(Nc3cnccn3)nc(N[C@@H](C)c3ccc(F)cc3)c2)cn1 [Example 219, (S)—N^2-[1-(4-Fluorophenyl)ethyl]-4-[1-(methoxymethyl)-1H-pyrazol-4-yl]-N^6-(pyrazin-2-yl)pyridine-2,6-diamine]	2.6	69
C[C@H](Nc1nc(Nc2cnccn2)cc(N2CCC3(CC2)OCCO3)n1)c1ccc(F)cc1 [Example 111, N^2-[(S)-1-(4-Fluorophenyl)ethyl]-N^4-(pyrazin-2-yl)-6-(1,4-dioxa-8-azaspiro[4.5]decan-8-yl)pyrimidine-2,4-diamine]	1.6	110
C[C@H](Nc1nc(Nc2cnccn2)cc(N2CCNC(C(N)=O)C2)n1)c1ccc(F)cc1 (stereo partly drawn) [Example 58, 4-{2-[(S)-1-(4-Fluorophenyl)ethylamino]-6-(pyrazin-2-ylamino)pyrimidin-4-yl}piperazin-2-carboxamide]	0.69	26
C[C@H](Nc1nc(NCc2ccncc2)cc(Nc2cnccn2)n1)c1ccc(F)cc1 [Example 108, (S)—N^2-[1-(4-Fluorophenyl)ethyl]-N^4-(pyrazin-2-yl)-N^6-(pyridin-4-ylmethyl)pyrimidine-2,4,6-triamine]	1.1	56
C[C@H](Nc1nc(Nc2cnccn2)cc(N2CC(F)C2)n1)c1ccc(F)cc1 [Example 44, (S)-6-(3-Fluoroazetidin-1-yl)-N^2-[1-(4-fluorophenyl)ethyl]-N^4-(pyrazin-2-yl)pyrimidine-2,4-diamine]	2.1	140
C[C@H](Nc1nc(Nc2cnccn2)cc(N2CCNC2=O)n1)c1ccc(F)cc1 [Example 21, (S)-1-{2-[1-(4-Fluorophenyl)ethylamino]-6-(pyrazin-2-ylamino)pyrimidin-4-yl}imidazolidin-2-one hydrochloride]	8.7	950
C[C@H](Nc1nc(Nc2cnccn2)ccc1C(=O)N(C)C)c1ccc(F)cc1 [Example 186, (S)-2-[1-(4-Fluorophenyl)ethylamino]-N,N-dimethyl-6-(pyrazin-2-ylamino) nicotinamide]	5.5	240
